Results as given in US3996361A, “N^6 -Substituted-9-[3-(4-phenyl-piperazino)-propyl]-adenines” (Boehringer Mannheim G.m.b.H., priority 1974, dated 1976).

System: PCA reaction induced by reaginic (IgE-like) antibodies to egg albumin
Assay: inhibition of the passive cutaneous anaphylactic (PCA) reaction in rats induced by reaginic antibodies to egg albumin
Type: in vivo, rat
Experimental: Diethylcarbamazin, i.e. 1-diethylcarbamoyl-4-methylpiperazine, was used as a comparison compound. Specifically, tests were run as follows:
Serum containing reaginic (IgE-like) antibody to egg albumin was prepared by injecting rats intramuscularly with 0.1 ml of a solution of the antigen (10 mg/ml) in saline together with 0.5 ml of Bordetella pertussis vaccine (Behring; 2 × 10^10 organisms/ml). 9-14 Days later the animals were bled from the abdominal aorta; the serum was pooled and stored at -20° C until required. The titer of the serum, i.e. the highest dilution inducing passive cutaneous anaphylaxis (PCA) in the rat following a 48-hour latent period, was between 1:8 and 1:32. For use in these experiments the serum was diluted 1:24.
The animals were anesthetized with 2,2-dichloro-1,1-difluoroethyl-methyl ether, sold under the trademark Penthrane, and were sensitized by injecting 0.1 ml of the antiserum into the shaved abdominal flanks. After 48 hours for reaginic PCA, the animals were given an intravenous injection of 1 ml of saline solution containing 0.5% by weight of egg albumin and 0.25% by weight of Evans blue.
After having killed and exsanguinated the animals, the size in square millimeters and the intensity, in arbitary scores, of the resulting blue spot were determined. The product of these two parameters was used to determine the degree of the reaction and the degree of reaction with no active material was taken as the standard against which to measure % inhibition of the anaphylactic reaction.
6 Animals were used per dose level and for control.
In some instances the test material was injected intravenously (i.v.) immediately before the antigen, using a solution in water containing 0.5% HCl and 2% of dimethylformamide, and in other instances intraperitoneally (i.p.) 20 minutes before the antigen, using a suspension in water containing 1% of methylcellulose. The volume of the injection was varied to give the indicated dosage of active material.

[1] = 3 mg/kg i.p. 20 min. before antigen (ovalbumin 5 mg/animal i.v.)
[2] = 3 mg/kg i.v. immediately before antigen (ovalbumin 5 mg/animal i.v.)

SMILES | % Inhibition of PCA, i.p. [1] | % Inhibition of PCA, i.v. [2] | % Inhibition of PCA, i.p. (60 mg/kg i.p. 20 min. before antigen (ovalbumin 5 mg/animal i.v.)) | % Inhibition of PCA, i.v. (60 mg/kg i.v. immediately before antigen (ovalbumin 5 mg/animal i.v.))
CCCNc1ncnc2c1ncn2CCCN1CCN(c2ccccc2)CC1 [Ex. 2, N^6-n-Propyl-9-[3-(4-phenyl-piperazino)-propyl]-adenine] | 59% | 83% |  | 
CNc1ncnc2c1ncn2CCCN1CCN(c2ccc(C)cc2)CC1 [Ex. 1 (y), N^6-methyl-9-{3-[4-(4-methylphenyl)-piperazino]-propyl}-adenine] | 33% | 61% |  | 
CNc1ncnc2c1ncn2CCCN1CCN(c2ccc(F)cc2)CC1 [Ex. 1 (q), N^6-methyl-9-{3-[4-(4-fluorophenyl)-piperazino]-propyl}-adenine] | 57% |  |  | 
CCCCNc1ncnc2c1ncn2CCCN1CCN(c2ccccc2)CC1 [Ex. 1 (ab), N^6-n-butyl-9-[3-(4-phenyl-piperazino)-propyl]-adenine] | 69% |  |  | 
CCN(CC)C(=O)N1CCN(C)CC1 [Diethylcarbamazin, 1-diethylcarbamoyl-4-methylpiperazine, reference compound] |  |  | 19% | 58%
CCNc1ncnc2c1ncn2CCCN1CCN(c2ccccc2)CC1 [Ex. 1 (d), N^6-ethyl-9-[3-(4-phenyl-piperazino)-propyl]-adenine] | 41% | 91% |  | 
